{
  "source": "patent US11352368B2",
  "about": "“Salt of fused ring pyrimidine compound, crystal form thereof and preparation method therefor and use thereof” (GUANGZHOU MAXINOVEL PHARMACEUTICALS CO., LTD., priority 2018, dated 2022)",
  "key": {"[1]": {"assay": "Solubility test of crystal form A and crystal form B in a medium (Example 12)", "type": "physicochemical", "conditions": "for solubility: thermodynamic from solid, read-out: Solubility (calculated by free base of the fused ring pyrimidine compound); for Solubility (calculated by free base of the fused ring pyrimidine compound): in mg/mL (unit assumed); for solubility in pure water compared to free base: versus free base of the fused ring pyrimidine compound", "text": "Example 12 Solubility Test of the Crystal Form A of the Fumarate of Fused Ring Pyrimidine Compound as Shown in Formula 2 and the Crystal Form B of the Adipate of Fused Ring Pyrimidine Compound as Shown in Formula 3 in a Medium"}, "[2]": {"assay": "Solubility test of the salts in pure water (Example 6)", "type": "physicochemical", "conditions": "for saturated solubility: room temperature, balancing about 20 hours, HPLC; for solubility in pure water compared with the free base: versus free base of the fused ring pyrimidine compound", "description": "2.0 mg of sample was precisely weighed into a liquid phase vial, 1.0 mL of purified water was added, the vial was subjected to ultrasonic treatment for about 30 seconds to disperse the samples evenly, then the vial was placed on a Labquaker rotator, and slowly rotated at room temperature for balancing. After balancing for about 20 hours, each vial was removed, and the solution was filtered with 0.45 μm nylon filter membrane. The filtrate was diluted by DMSO or not diluted and then detected by HPLC. At the same time, two parts of fused ring pyrimidine compounds were weighed and dissolved in DMSO to make standard solutions with concentration of 250 μg/mL and 500 μg/mL, respectively. The standard solutions were subjected to the HPLC detection. The sample concentration vs the peak area of HPLC principal component was used for make a standard curve, and the solubility of each sample in pure water was calculated by a external standard method."}, "[3]": {"assay": "Dynamic vapor sorption analysis (DVS)", "type": "physicochemical", "conditions": "for XRPD of samples after DVS test: XRPD diffraction peaks before and after DVS test; for DVS weight gain from 0% RH to 95% RH: 25° C., 0% to 95% relative humidity, weight percentage", "description": "(§1) 10 mg of the crystal form A of the fumarate of fused ring pyrimidine compound as shown in formula 2 was weighed, and dried for 60 min under the condition of a temperature of 25° C. and a humidity of 0% RH, and then the humidity absorption characteristic of the sample was tested when the humidity changed from 0% RH to 95% RH, and the dehumidification characteristic of the sample was tested when the humidity changed from 95% RH to 0% RH. Each step length for the humidity changes was 5% RH, the balance standard was that the weight change rate was less than 0.01%/min within 5 min, and the longest balance time was 2 hours.\nas §1, with “form B” for “form A”, “the adipate” for “the fumarate”, “formula 3” for “formula 2”"}, "[4]": {"assay": "Stability test (total impurities, 20 days)", "type": "physicochemical", "conditions": "for chemical stability in the condition of high temperature and high humidity / stability under light conditions versus the compound of formula 1: 20 days", "description": "The crystal form A of the fumarate of fused ring pyrimidine compound as shown in formula 2, the crystal form B of the adipate of fused ring pyrimidine compound as shown in formula 3 and the fused ring pyrimidine compound as shown in formula 1 were subjected to tests at a high temperature of 60° C., 25° C./60% RH, 40° C./75% RH and highlight irradiation (4500 lx±500 lx), the test time was 20 days, the sample bottles were placed under different test conditions, and samples were taken at 0 and 20 days to detect the total amount of impurities, and the test results were shown in Table 8 below."}, "[5]": {"assay": "Pharmacokinetic experiment, single intragastric dose in rats", "type": "in vivo, SD rats", "conditions": "single dose 10 mg/kg, 0.5% MC and 0.5% Tween80 in water", "description": "1) Preparation of animals 9 healthy male SD rats, each with a body weight of 220-230 g, were taken, fed with standard formulated granulated feed for rats at fixed times every day, and fasted for 12 hours before the experiment, and feeding was resumed after 4 hours of administration. Rats were free to drink water before, after and during the experiment. 9 rats were randomly divided into 3 groups.\n2) Formulation of drugs: The fused ring pyrimidine compound as shown in formula 1, the crystal form A of the fumarate of fused ring pyrimidine compound as shown in formula 2 and the crystal form B of the adipate of fused ring pyrimidine compound as shown in formula 3 were accurately weighed, and were formulated into a 1 mg/mL solution in water (Wahaha/111830) with 0.5% MC (Fluka/BCBK3534K) and 0.5% Tween80 (TCl/V4FSC), respectively.\n3) Intragastric administration with single dose (10 mg/kg): in the first group, rats were intragastrically administered with a solution of the fused ring pyrimidine compound as shown in formula 1, in the second group, rats were intragastrically administered with a solution of the crystal form A of the fumarate of fused ring pyrimidine compound as shown in formula 2, and in the third group, rats were intragastrically administered with a solution of the crystal form B of the adipate of fused ring pyrimidine compound as shown in formula 3.\n4) Collection of blood samples: About 150 μL of blood was taken from the fundus venous plexus before administration and 0.083, 0.25, 0.5, 1, 2, 4, 8 and 24 hours after administration from each rat in the three groups, and anticoagulated with K2EDTA, plasma was separated by centrifugation and the supernatant was collected for LC-MS analysis."}, "[6]": {"conditions": "listed as The fumarate of fused ring pyrimidine compound as shown in formula 2"}, "[7]": {"conditions": "listed as The phosphate of fused ring pyrimidine compound as shown in formula 4"}, "[8]": {"conditions": "listed as The tartrate of fused ring pyrimidine compound as shown in formula 5"}, "[9]": {"conditions": "medium intestinal fluid in simulated fed state (FeSSIF)"}, "[10]": {"conditions": "medium pH 4 (50 mM phosphate buffer)"}, "[11]": {"conditions": "medium pH 6 (50 mM phosphate buffer)"}},
  "note": "Structures can show the parent of a compound that is named as a salt. Where two headings read alike, the source gives them in different places.",
  "data": [
    {"smiles": "COc1cc(F)ccc1-c1c(C)sc2cnc(Nc3cnn(C4CCNCC4)c3)nc12", "values": [
      {"measurement": "solubility", "setting": "[1]; 50 mM phosphate buffer, pH 6, aqueous buffer, medium pH 6 (50 mM phosphate buffer)", "value": 36, "unit": "µg/mL"},
      {"measurement": "solubility", "setting": "[1]; FeSSIF, medium intestinal fluid in simulated fed state (FeSSIF)", "value": 1910, "unit": "µg/mL"}
    ]},
    {"smiles": "COc1cc(F)ccc1-c1c(C)sc2cnc(Nc3cnn(C4CCNCC4)c3)nc12", "note": "[Example 1]", "values": [
      {"measurement": "saturated solubility", "setting": "[2]", "value": 170, "unit": "µg/mL"},
      {"measurement": "solubility in pure water compared with the free base", "setting": "[2]", "value": "significantly improved"},
      {"measurement": "DVS: Moisture-absorption weight gain at 85% RH", "setting": "[3]; [6]", "value": "85% RH: 0.324%"},
      {"measurement": "DVS: Moisture-absorption weight gain at 95% RH", "setting": "[3]; [6]", "value": "95% RH: 0.404%"},
      {"measurement": "XRPD of samples after DVS test", "setting": "[3]; [6]", "value": "consistent"},
      {"measurement": "DVS: Weight loss in drying stage", "setting": "[3]; [6]", "value": "drying stage: 0.117%"}
    ]},
    {"smiles": "COc1cc(F)ccc1-c1c(C)sc2cnc(Nc3cnn(C4CCNCC4)c3)nc12", "note": "[Example 2]", "values": [
      {"measurement": "saturated solubility", "setting": "[2]", "value": 520, "unit": "µg/mL"},
      {"measurement": "solubility in pure water compared with the free base", "setting": "[2]", "value": "significantly improved"}
    ]},
    {"smiles": "COc1cc(F)ccc1-c1c(C)sc2cnc(Nc3cnn(C4CCNCC4)c3)nc12", "note": "[Example 3]", "values": [
      {"measurement": "saturated solubility", "setting": "[2]", "value": 675, "unit": "µg/mL"},
      {"measurement": "solubility in pure water compared with the free base", "setting": "[2]", "value": "significantly improved"},
      {"measurement": "DVS: Moisture-absorption weight gain at 85% RH", "setting": "[3]; [7]", "value": "85% RH: 6.95%"},
      {"measurement": "DVS: Moisture-absorption weight gain at 95% RH", "setting": "[3]; [7]", "value": "95% RH: 12.15%"},
      {"measurement": "XRPD of samples after DVS test", "setting": "[3]; [7]", "value": "consistent"},
      {"measurement": "DVS: Weight loss in drying stage", "setting": "[3]; [7]", "value": "drying stage: 0.752%"}
    ]},
    {"smiles": "COc1cc(F)ccc1-c1c(C)sc2cnc(Nc3cnn(C4CCNCC4)c3)nc12", "note": "[Example 4]", "values": [
      {"measurement": "saturated solubility", "setting": "[2]", "value": 146, "unit": "µg/mL"},
      {"measurement": "solubility in pure water compared with the free base", "setting": "[2]", "value": "significantly improved"},
      {"measurement": "DVS: Moisture-absorption weight gain at 85% RH", "setting": "[3]; [8]", "value": "85% RH: 8.390%"},
      {"measurement": "DVS: Moisture-absorption weight gain at 95% RH", "setting": "[3]; [8]", "value": "95% RH: 8.659%"},
      {"measurement": "DVS: Weight loss in drying stage", "setting": "[3]; [8]", "value": "drying stage: 5.88%"}
    ]},
    {"smiles": "COc1cc(F)ccc1-c1c(C)sc2cnc(Nc3cnn(C4CCNCC4)c3)nc12", "note": "[The crystal form A of the fumarate of fused ring pyrimidine ]", "values": [
      {"measurement": "solubility in intestinal fluid (FeSSIF) in simulated fed state, in words", "setting": "[1]; FeSSIF", "value": "high"},
      {"measurement": "pH value of sample solution for solubility", "setting": "[1]; medium Purified water", "value": 7.27},
      {"measurement": "Solubility (calculated by free base of the fused ring pyrimidine compound)", "setting": "[1]; medium Purified water", "value": 0.126},
      {"measurement": "pH value of sample solution for solubility", "setting": "[1]; [9]", "value": 5.19},
      {"measurement": "pH value of sample solution for solubility", "setting": "[1]; [10]", "value": 4.33},
      {"measurement": "Solubility (calculated by free base of the fused ring pyrimidine compound)", "setting": "[1]; [10]", "value": 0.159},
      {"measurement": "pH value of sample solution for solubility", "setting": "[1]; [11]", "value": 5.96},
      {"measurement": "solubility in pure water compared to free base", "setting": "[1]", "value": "significantly improved"},
      {"measurement": "DVS weight gain from 0% RH to 95% RH", "setting": "[3]", "value": 0.2518, "unit": "%"},
      {"measurement": "Impurity content", "setting": "[4]; Day 0", "value": 0.25, "unit": "%"},
      {"measurement": "Impurity content", "setting": "[4]; Day 20, 25° C/60% RH", "value": 0.25, "unit": "%"},
      {"measurement": "Impurity content", "setting": "[4]; Day 20, 40° C/75% RH", "value": 0.28, "unit": "%"},
      {"measurement": "Impurity content", "setting": "[4]; Day 20, 60° C", "value": 0.25, "unit": "%"},
      {"measurement": "Impurity content", "setting": "[4]; Day 20, Light (4500 lx±500 lx)", "value": 0.46, "unit": "%"},
      {"measurement": "chemical stability in the condition of high temperature and high humidity", "setting": "[4]", "value": "good chemical stability"},
      {"measurement": "stability under light conditions versus the compound of formula 1", "setting": "[4]", "value": "significantly higher"},
      {"measurement": "Blood drug concentration (AUC)", "setting": "[5]", "value": 999, "unit": "ng·h/mL"}
    ]},
    {"smiles": "COc1cc(F)ccc1-c1c(C)sc2cnc(Nc3cnn(C4CCNCC4)c3)nc12", "note": "[The crystal form B of the adipate of fused ring pyrimidine c]", "values": [
      {"measurement": "pH value of sample solution for solubility", "setting": "[1]; medium Purified water", "value": 7.09},
      {"measurement": "Solubility (calculated by free base of the fused ring pyrimidine compound)", "setting": "[1]; medium Purified water", "value": 0.463},
      {"measurement": "pH value of sample solution for solubility", "setting": "[1]; [9]", "value": 5.2},
      {"measurement": "Solubility (calculated by free base of the fused ring pyrimidine compound)", "setting": "[1]; [9]", "value": 1.46},
      {"measurement": "pH value of sample solution for solubility", "setting": "[1]; [10]", "value": 4.85},
      {"measurement": "Solubility (calculated by free base of the fused ring pyrimidine compound)", "setting": "[1]; [10]", "value": 0.104},
      {"measurement": "pH value of sample solution for solubility", "setting": "[1]; [11]", "value": 6.01},
      {"measurement": "Solubility (calculated by free base of the fused ring pyrimidine compound)", "setting": "[1]; [11]", "value": 0.035},
      {"measurement": "solubility in pure water compared to free base", "setting": "[1]", "value": "significantly improved"},
      {"measurement": "DVS weight gain from 0% RH to 95% RH", "setting": "[3]", "value": 2.751, "unit": "%"},
      {"measurement": "Impurity content", "setting": "[4]; Day 0", "value": 0.24, "unit": "%"},
      {"measurement": "Impurity content", "setting": "[4]; Day 20, 25° C/60% RH", "value": 0.22, "unit": "%"},
      {"measurement": "Impurity content", "setting": "[4]; Day 20, 40° C/75% RH", "value": 0.22, "unit": "%"},
      {"measurement": "Impurity content", "setting": "[4]; Day 20, 60° C", "value": 0.23, "unit": "%"},
      {"measurement": "Impurity content", "setting": "[4]; Day 20, Light (4500 lx±500 lx)", "value": 0.42, "unit": "%"},
      {"measurement": "chemical stability in the condition of high temperature and high humidity", "setting": "[4]", "value": "good chemical stability"},
      {"measurement": "stability under light conditions versus the compound of formula 1", "setting": "[4]", "value": "significantly higher"},
      {"measurement": "Blood drug concentration (AUC)", "setting": "[5]", "value": 1038, "unit": "ng·h/mL"}
    ]}
  ]
}
